Paper PMC11839646, “HPK1 kinase inhibitor: a sufficient approach to target HPK1 to modulate T cell activation in cancer immunotherapy compared with degraders” (Frontiers in Immunology, 2025)
Read-outs that look alike come from different tables or passages of the source.

Legend:
[1] = tested on: phosphorylation of SLP76-S376; assay: TCR-induced p-SLP76-S376 in Jurkat cells after OKT3 stimulation (flow cytometry); format: cell-based; settings: Homo sapiens; Jurkat cells pretreated 24 h, OKT3 stimulation 30 min
Experimental: (§1) Jurkat cells (ATCC, Manassas, VA, USA) and human peripheral blood mononuclear cells (PBMCs) were cultured in RPMI-1640 medium (Thermo Fisher Scientific, Waltham, MA, USA) supplemented with 10% heat-inactivated fetal bovine serum (Thermo Fisher) and 1% penicillin–streptomycin (Thermo Fisher Scientific) at 37°C in a humidified incubator with 5% CO2. The density of Jurkat cells was adjusted to 1 × 10^6/mL 24 h before conducting the experiment. Cryopreserved human PBMCs were purchased from Oribiotech (Shanghai, China); they were freshly thawed and cultured overnight prior to performing the experiment.
(§2) Jurkat cells or human PBMCs were pretreated in triplicates or quadruplicates with dimethyl sulfoxide or compounds for 24 h. For p-SLP76-S376 analysis, the cells were activated for 30 min with OKT3. For granzyme B and perforin analysis of human PBMCs, ultra-high binding 96-well plates (Corning Inc., Corning, NY, USA) were precoated with OKT3 overnight at 4°C. Human PBMCs were pretreated in quadruplicates with dimethyl sulfoxide or compounds for 24 h. The cells were then activated for another 24 h with precoated OKT3, followed by 2 h treatment with Protein Transport Inhibitor Cocktail (Thermo Fisher). The stimulated cells were fixed with BD Phosflow™ Lyse/Fix buffer (BD Biosciences, San Diego, CA, USA), washed and permeabilized with BD Perm Buffer III (BD Biosciences), and subsequently stained with a fluorescence-conjugated antibody against HPK1 (E1C3L; Cell Signaling Technology), p-SLP76-S376 (E3G9U; Cell Signaling Technology), granzyme B (GB11, BioLegend, San Diego, CA, USA), perforin (dG9, BioLegend) and anti-human CD3 (SK7, BioLegend), CD4 (SK3, BioLegend) and CD8 (SK1, BioLegend) for primary T cells. This was followed by data acquisition and analysis with the BD FACSymphony™ A1 Cell Analyzer (BD Biosciences).

[2] = tested on: Jurkat cells; assay: IL-2 production by Jurkat cells stimulated with immobilized OKT3; format: cell-based, human; settings: Jurkat cells pretreated 24 h, immobilized OKT3 24 h
Experimental: as §1
Jurkat cells were seeded in triplicates into those plates for stimulation and incubated for 24 h. Alternatively, Jurkat cells were pretreated with various concentrations of the aforementioned compounds for 24 h prior to stimulation with aforementioned immobilized OKT3. For cytokine analysis of human PBMCs, the cells were seeded into U-bottomed 96-well plates (Corning Inc.) and treated with the compounds for 24 h prior to stimulation. Next, the cells were stimulated by co-culture with HEK293/OS8/PD-L1 cells in the U-bottomed 96-well plates for another 24 h. HEK293/OS8/PD-L1 is a HEK293 cell line edited to stably co-express human PD-L1 (programmed death ligand 1) and single chain fragment variable (scFv) of OKT3 fused with transmembrane and cytoplasmic domains of murine CD8α, as previously described ([21]). Interleukin 2 (IL-2) and interferon-gamma (IFN-γ) in the supernatant were detected using the HTRF Human IL-2 Detection Kit and AlphaLISA Biotin-Free Human IFNγ Detection Kit (both obtained from Revvity, Waltham, MA, USA) according to the instructions provided by the manufacturer. Data were acquired with PHERAstar FSX (BMG LABTECH Inc., Cary, NC, USA).

[3] = tested on: phosphorylation of SLP76-S376; assay: TCR-induced p-SLP76-S376 in CD4+ and CD8+ T cells of human PBMCs (flow cytometry); format: cell-based; settings: for TCR-induced phosphorylation on SLP76-S376: 24 h pretreatment
Experimental: as §1, §2

[4] = tested on: CD8+ T cells of human PBMCs; assay: Granzyme B levels in CD8+ T cells of human PBMCs after OKT3 stimulation; format: cell-based; settings: human PBMCs pretreated 24 h, OKT3 stimulation 24 h
Experimental: as §2

[5] = molecular target: T1, HPK1 (Homo sapiens, UniProt Q92918); assay: Western blotting of TCR-induced signaling in HKO-EV, HKO-HPK1.WT and HKO-HPK1.K46E Jurkat cells; format: cell-based; design: expressed in transfected cells; host or cells: HPK1-knockout Jurkat single clone (EdiGene), lentiviral transduction, blasticidin-selected pool; settings: compound pretreatment, OKT3 stimulation; for SLP76-S376 phosphorylation (Western blot): HKO-HPK1.WT Jurkat cells; for ERK1/2 phosphorylation (Western blot): HKO-HPK1.WT vs HKO-EV and HKO-HPK1.K46E Jurkat cells
T1 sequence (Q92918 whole entry): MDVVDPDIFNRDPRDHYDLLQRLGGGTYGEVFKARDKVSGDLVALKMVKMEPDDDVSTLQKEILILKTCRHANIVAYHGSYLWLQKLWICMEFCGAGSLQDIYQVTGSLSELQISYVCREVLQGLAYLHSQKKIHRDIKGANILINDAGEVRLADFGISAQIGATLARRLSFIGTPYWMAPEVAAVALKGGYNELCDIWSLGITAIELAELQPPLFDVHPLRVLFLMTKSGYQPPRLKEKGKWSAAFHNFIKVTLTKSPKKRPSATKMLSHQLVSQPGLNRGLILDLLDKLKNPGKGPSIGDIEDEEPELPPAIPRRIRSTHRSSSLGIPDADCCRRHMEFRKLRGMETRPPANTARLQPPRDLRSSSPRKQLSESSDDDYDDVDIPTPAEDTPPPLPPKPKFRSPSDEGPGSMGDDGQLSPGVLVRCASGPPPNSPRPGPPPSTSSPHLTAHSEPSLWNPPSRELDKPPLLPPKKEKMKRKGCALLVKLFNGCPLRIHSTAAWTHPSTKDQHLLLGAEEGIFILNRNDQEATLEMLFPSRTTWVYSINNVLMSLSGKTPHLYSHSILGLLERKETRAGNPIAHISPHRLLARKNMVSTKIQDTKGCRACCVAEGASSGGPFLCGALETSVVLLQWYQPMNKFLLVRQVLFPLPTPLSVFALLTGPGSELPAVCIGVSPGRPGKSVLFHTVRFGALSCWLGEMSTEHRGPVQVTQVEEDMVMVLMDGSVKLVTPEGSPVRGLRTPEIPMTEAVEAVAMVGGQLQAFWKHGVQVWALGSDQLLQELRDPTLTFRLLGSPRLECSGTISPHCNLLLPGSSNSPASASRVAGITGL
Description: The Jurkat line with a homozygous knockout of HPK1 (HKO) single clone was purchased from EdiGene (Beijing, China). HKO-EV (HKO empty vector control), HKO-HPK1.WT (HKO overexpressing wildtype HPK1), and HKO-HPK1.K46E (HKO overexpressing kinase-dead HPK1) Jurkat pools were generated by lenti-vector transduction. In brief, the coding sequences of different HPK1 mutants were inserted into a FG12-BSD plasmid with the human phosphoglycerate kinase (hPGK) promoter (GenScript, Nanjing, China). Thereafter, 293T cells (ATCC) were transfected with those plasmids together with lentivirus packing plasmids pMD2.G and psPAX2. The culture medium containing virus was collected and used to infect HKO cells. Blasticidin 10 µg/mL (InvivoGen, San Diego, CA, USA) was used for the selection of infected cells. HPK1-knockin Jurkat cells (HPK1 K46*) and kinase-inactivated HPK1-knockin Jurkat cells (HPK1 K46E) were produced by introducing a Lys46Ter mutation or a Lys46Glu mutation to the HPK1 gene, respectively.
(§3) Jurkat cells were activated by anti-human CD3 (OKT3; 10 μg/mL, Thermo Fisher Scientific), while human peripheral blood cells were activated through TCR crosslinking by biotinylated OKT3 and streptavidin (7.5 μg/mL; Thermo Fisher Scientific). The cells were lysed at various time points post stimulation, and the lysate was denatured. The obtained samples were subjected to electrophoresis, and the separated proteins were electro-transferred onto a nitrocellulose membrane. Thereafter, the membranes were incubated with antibodies against HPK1 (E1C3L), phosphorylated SLP76-S376 (p-SLP76-S376; D7S1K), SLP76 (D1R1A), p-ERK1/2-T202/Y204 (D13.14.4E), p-PLCγ1-Y783 (polyclonal), PLCγ1 (D9H10), and glyceraldehyde-3-phosphate dehydrogenase (GAPDH; D4C6R). All antibodies used for immunoblotting were purchased from Cell Signaling Technology (Danvers, MA, USA).

[6] = molecular target: T1, HPK1; assay: HPK1 degradation in Jurkat cells (intracellular staining, flow cytometry); format: cell-based; design: Compound 2 degraded HPK1 in CD4^+ and CD8^+ T cells in a concentration-dependent manner; host or cells: human PBMCs (CD4+ and CD8+ T cells) from healthy donors; settings: for HPK1 degradation at high concentrations: 24 h treatment, ≥1,000 nM
Experimental: as §1, §2

[7] = molecular target: T1, HPK1; assay: HPK1 degradation in CD4+ and CD8+ T cells of human PBMCs (flow cytometry); format: cell-based; design: Compound 2 degraded HPK1 in CD4^+ and CD8^+ T cells in a concentration-dependent manner; host or cells: human PBMCs (CD4+ and CD8+ T cells) from healthy donors; settings: for HPK1 degradation at 1,000 nM / HPK1 degradation at high concentrations: CD4+ and CD8+ T cells in human PBMCs; for HPK1 degradation at 1,000 nM: 24 h, 1,000 nM; for HPK1 degradation at high concentrations: 24 h, ≥3,000 nM; for DC50: 24 h treatment, read-out: HPK1 degradation EC50
Experimental: as §1, §2

[8] = molecular target: T1, HPK1; assay: Western blotting of TCR-induced signaling in human PBMCs after TCR crosslinking; format: cell-based; design: Compound 2 degraded HPK1 in CD4^+ and CD8^+ T cells in a concentration-dependent manner; host or cells: human PBMCs (CD4+ and CD8+ T cells) from healthy donors
Experimental: as §1, §3

[9] = tested on: human PBMCs; assay: IL-2 and IFN-γ production by human PBMCs co-cultured with HEK293/OS8/PD-L1; format: cell-based; settings: human PBMCs pretreated 24 h, co-culture with HEK293/OS8/PD-L1 24 h
Experimental: as §1
Jurkat cells were seeded in triplicates into those plates for stimulation and incubated for 24 h. Alternatively, Jurkat cells were pretreated with various concentrations of the aforementioned compounds for 24 h prior to stimulation with aforementioned immobilized OKT3. For cytokine analysis of human PBMCs, the cells were seeded into U-bottomed 96-well plates (Corning Inc.) and treated with the compounds for 24 h prior to stimulation. […] Interleukin 2 (IL-2) and interferon-gamma (IFN-γ) in the supernatant were detected using the HTRF Human IL-2 Detection Kit and AlphaLISA Biotin-Free Human IFNγ Detection Kit (both obtained from Revvity, Waltham, MA, USA) according to the instructions provided by the manufacturer. […]

[10] = tested on: HepG2 cells; assay: Real-time cell mediated cytotoxicity assay (xCELLigence RTCA), PBMC killing of HepG2; format: cell-based; settings: PBMC:HepG2 5:1, compared to DMSO-pretreated PBMCs, up to 6 days post TCR stimulation
Experimental: For in vitro HepG2 cell killing, human PBMCs were pretreated in quadruplicates with dimethyl sulfoxide or compounds for 24 h, followed by stimulation by OKT3 for another 24 h. HepG2 cells were seeded at 2 × 10^4/well in a RTCA 96-well-E plate (Agilent Technologies, Sana Clara, CA, USA). 24 h after HepG2 seeding, the stimulated PBMCs were added at a PBMC: HepG2 cells ratio of 5:1. Target cell death was monitored using xCELLigence RTCA MP instrument (Agilent Technologies).

[11] = tested on: HPK1; design: method as in PMID 32860752, PMID 39446986, PMID 39568237; settings: preclinical; cited from earlier work
[12] = 300 nM and 1,000 nM pretreatment

| SMILES | IC50 [1] [µM] | IL-2 production EC50 relative to Compound 2 [2] | IL-2 production, maximal level [2] | TCR-induced phosphorylation on SLP76-S376 [3] | Granzyme B levels in CD8+ T cells [4] | SLP76-S376 phosphorylation (Western blot) [5] | ERK1/2 phosphorylation (Western blot) [5] | HPK1 degradation at high concentrations [6] | HPK1 degradation at 1,000 nM [7] | HPK1 degradation at high concentrations [7] | HPK1 levels (Western blot) [8, 12] | SLP76-S376 phosphorylation (Western blot) [8, 12] | Cytotoxicity of pretreated PBMCs against HepG2 cells [10] | further results |
| --- | --- | --- | --- | --- | --- | --- | --- | --- | --- | --- | --- | --- | --- | --- |
| Cc1cc(-c2cnc3[nH]cc(-c4ccc(C(=O)N(C)C)cc4)c3c2)cc2c1CN(C)CC2 [Compound 1, 4-(5-(2,8-dimethyl-1,2,3,4-tetrahydroisoquinolin-6-yl)-1H-pyrrolo[2,3-b]pyridin-3-yl)-N,N-dimethylbenzamide] | 0.12 | higher | comparable with that induced by Compound 2 | effectively reduced | enhanced granzyme B levels | attenuated SLP76-S376 phosphorylation | enhanced ERK1/2 phosphorylation only in HKO-HPK1.WT Jurkat cells | resulted in the degradation of HPK1 | did not significantly degrade HPK1 | limited HPK1 degradation | without significantly affecting HPK1 levels | reduced or almost completely attenuated SLP76-S376 phosphorylation |  |  |
| Cc1cc(-c2cnc3[nH]cc(-c4ccc(C(=O)N(C)C)cc4)c3c2)cc2c1CN(CCC(=O)N1CCN(c3ccc(N4CCC(=O)NC4=O)cc3)CC1)CC2 [Compound 2, 4-(5-(2-(3-(4-(4-(2,4-dioxotetrahydropyrimidin-1(2H)-yl)phenyl)piperazin-1-yl)-3-oxopropyl)-8-methyl-1,2,3,4-tetrahydroisoquinolin-6-yl)-1H-pyrrolo[2,3-b]pyridin-3-yl)-N,N-dimethylbenzamide] | ~0.02 |  |  | effectively reduced | enhanced granzyme B levels | attenuated SLP76-S376 phosphorylation | enhanced ERK1/2 phosphorylation only in HKO-HPK1.WT Jurkat cells |  |  |  |  |  | did not exhibited stronger cytotoxicity against HepG2 cells | EC50 ([2]; Homo sapiens): ~0.2 µM; IC50 for SLP76-S376 phosphorylation relative to the other two compounds [3]: lower in both populations; Maximal enhancement of TCR-induced IL-2 and IFN-γ production [9]: not stronger than that after treatment with Compound 1; HPK1 degradation, time course ([6]; 1 μM, within 24 h): effectively degraded HPK1; DC50 ([7]; CD4+ T cells in human PBMCs): 0.0115 µM; DC50 ([7]; CD8+ T cells in human PBMCs): 0.026 µM; HPK1 levels (Western blot) ([8]; 300 nM pretreatment): almost complete degradation of HPK1; SLP76-S376 phosphorylation (Western blot) ([8]; 300 nM pretreatment): attenuation of SLP76-S376 phosphorylation |
| Cc1cc(-c2cnc3[nH]cc(-c4ccc(C(=O)N(C)C)cc4)c3c2)cc2c1CN(CCC(=O)N1CCN(c3ccc(N4CCC(=O)N(C)C4=O)cc3)CC1)CC2 [Compound 3, N,N-dimethyl-4-(5-(8-methyl-2-(3-(4-(4-(3-methyl-2,4-dioxotetrahydropyrimidin-1(2H)-yl)phenyl)piperazin-1-yl)-3-oxopropyl)-1,2,3,4-tetrahydroisoquinolin-6-yl)-1H-pyrrolo[2,3-b]pyridin-3-yl)benzamide] | 0.12 | higher | comparable with that induced by Compound 2 | effectively reduced |  | attenuated SLP76-S376 phosphorylation | enhanced ERK1/2 phosphorylation only in HKO-HPK1.WT Jurkat cells | resulted in the degradation of HPK1 | did not significantly degrade HPK1 | limited HPK1 degradation | without significantly affecting HPK1 levels | reduced or almost completely attenuated SLP76-S376 phosphorylation | enhanced HepG2 killing ability of PBMCs, but to a less extent than Compound 1 or Compound 2 |  |
| CC(C)(O)C#Cc1cccc(COc2cc(-c3cnc(C4CCN(C(=O)CCOCCOCCOCCOCCOc5cccc6c5C(=O)N(C5CCC(=O)NC5=O)C6=O)CC4)s3)cnc2N)c1 (stereo not drawn) [SS47] |  |  |  |  |  |  |  |  |  |  |  |  |  | Tumor suppression compared to the corresponding warhead [11]: greater tumor suppression |
